Data as given in patent US7309712B2, “1H-pyrazoles useful in therapy” (Pfizer Limited, priority 2005, dated 2007).

Biological target: T1, Progesterone Receptor (PR) (Homo sapiens, UniProt P06401)
T1 construct: endogenous in cells; host or cells: T47D human breast mammary carcinoma cells
T1 sequence (P06401 1-933): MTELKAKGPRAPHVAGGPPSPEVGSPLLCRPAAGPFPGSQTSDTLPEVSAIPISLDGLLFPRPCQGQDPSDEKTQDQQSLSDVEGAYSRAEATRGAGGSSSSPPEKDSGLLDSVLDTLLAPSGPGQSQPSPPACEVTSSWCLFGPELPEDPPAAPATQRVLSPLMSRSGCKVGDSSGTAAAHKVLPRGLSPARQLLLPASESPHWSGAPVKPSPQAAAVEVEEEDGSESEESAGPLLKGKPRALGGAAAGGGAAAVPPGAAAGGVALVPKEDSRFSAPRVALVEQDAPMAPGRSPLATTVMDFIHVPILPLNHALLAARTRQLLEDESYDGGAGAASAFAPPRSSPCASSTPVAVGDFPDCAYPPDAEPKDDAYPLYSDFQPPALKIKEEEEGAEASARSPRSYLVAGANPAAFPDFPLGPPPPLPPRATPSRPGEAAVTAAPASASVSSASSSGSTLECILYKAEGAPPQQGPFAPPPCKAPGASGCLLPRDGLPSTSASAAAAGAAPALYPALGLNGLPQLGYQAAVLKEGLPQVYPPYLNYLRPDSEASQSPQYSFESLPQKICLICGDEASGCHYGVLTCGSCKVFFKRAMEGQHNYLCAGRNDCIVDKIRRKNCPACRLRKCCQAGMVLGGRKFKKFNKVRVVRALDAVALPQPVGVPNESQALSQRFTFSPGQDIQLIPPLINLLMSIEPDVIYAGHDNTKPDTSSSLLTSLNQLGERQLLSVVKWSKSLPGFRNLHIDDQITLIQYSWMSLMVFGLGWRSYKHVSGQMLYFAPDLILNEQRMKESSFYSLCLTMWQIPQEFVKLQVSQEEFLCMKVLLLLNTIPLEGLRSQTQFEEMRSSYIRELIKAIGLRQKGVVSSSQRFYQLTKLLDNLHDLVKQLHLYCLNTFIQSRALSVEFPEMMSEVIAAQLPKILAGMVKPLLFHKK
Assay: In vitro functional assay for progesterone receptor (PR) antagonism: inhibition of progesterone-induced alkaline phosphatase expression in T47D cells (Screen 1.0)
Format: cell-based
Settings: antagonist format (5 nM P4), alkaline phosphatase inhibition in T47D human mammary carcinoma cells
Text: 1.0 In Vitro Functional Assay for Progesterone Receptor (PR) Antagonism
The assay for PR antagonism takes advantage of the extensively reported modulation of alkaline phosphatase (AP) expression in human breast T47D mammary carcinoma cells {Beck, et al., (1993). The progesterone antagonist RU486 acquires agonist activity upon stimulation of cAMP signalling pathways. Proc. Natl. Acad. Sci., USA, 90, 4441-4445; Fensome, et al. (2002). New progesterone receptor antagonists: 3,3-disubstituted-5-aryloxindoles. Bioorg. Med. Chem. Lett., 12, 3487-3490; Zhang et al., (2002a). 6-Aryl-1,4-dihydro-benzo d 1,3 oxazin-2-ones: a novel class of potent, selective, and orally active nonsteroidal progesterone receptor antagonists. J. Med. Chem., 45, 4379-4382; Zhang et al., (2003). Novel 6-aryl-1,4-dihydrobenzo[d]oxazine-2-thiones as potent, selective, and orally active nonsteroidal progesterone receptor agonists. Bioorganic & Med. Chem. Lett., 13, 1313-1316; Zhang et al., (2002b). Potent nonsteroidal progesterone receptor agonists: synthesis and SAR study of 6-aryl benzoxazines. Bioorganic & Med. Chem. Lett., 12, 787-790; Zhang, et al., (2000). In vitro characterization of trimegestone: a new potent and selective progestin. Steroids 65, 637-643}. […] In the absence of progesterone any agonist activity is also observed as an induction of AP activity. By running the assay in two formats (±progesterone (P4)), compounds behaving as PR antagonists, agonists or partials can be identified.
The materials required to grow T47D cells and perform the progesterone-induced AP assay are outlined in Table 1.
Assay media (agonist format): DMEM without phenol red+5% CS-FCS+2 mM Glutamax. Assay media (antagonist format): DMEM without phenol red+5% CS-FCS+2 mM Glutamax+10 nM P4.
Briefly, T47D cells are grown by propagating in DMEM+10% FBS+2 mM Glutamax at 37° C./5% CO2. At 80-90% confluence, the media is exchanged for phenol red free DMEM+5% CS-FCS (Assay media) and cultured for a further 24 hrs at 37° C./5% CO2. T47D cells are then plated at 2.5×10^4 cells/well in 100 μL assay media in sufficient 96 well plates for the assay, in triplicates of each condition. For example, for a 5-point IC50 curve on one compound, this is equivalent to […]. These plates are then cultured for 24 hrs at 37° C./5% CO2, leaving the outside wells blank by the addition of 200 μL PBS.
A 10 mM stock solution of compounds is prepared in DMSO (stored −20° C. in 10 μL aliquots). A 10 mM DMSO stock of RU486 is used as a standard pure PR antagonist. The compounds under investigation are added to assay medium, or a mixture of 0.05% pluronic acid in PBS, ±10 nM P4 to give a final concentration of 20 μM (i.e. 10 μL of the 10 mM stock to […] assay medium ±10 nM P4). The samples are mixed thoroughly and serial dilutions of compounds from 10 µM to 0.1 nM in a 96 well plate, are prepared as follows:
The outside wells are left blank. Assay medium (225 μL) is added to one half of the plate (−P4), rows 3-8, and to the other half of the plate, assay medium +10 nM P4. To row 2, 250 μL of the top concentration of compound (20 μM±10 nM P4) is added. 25 μL of the […] stock from row 2 is removed and added to the 225 μL of assay medium±10 nM P4 in row 3 and thoroughly mixed. This process is repeated down the plate to row 7 to achieve serial dilutions. The vehicle control is adjusted to contain 0.1% DMSO (i.e. 20 μL to 10 mL assay medium±10 nM P4 to give a concentration of 0.2% DMSO, add 250 μL to row 8).
100 μL of reagent from the dilution plates are transferred into the corresponding wells containing T47D cells assay medium, to give a final concentration of 10 μM to 0.1 nM compound (5 nM P4 antagonist format). The cells were incubated for 20 hrs at 37° C./5% CO2., then media is removed, cells washed with PBS (200 μL) and lysed by placing the cells at −80° C. for 15 min and thawing at room temp. The freeze-thaw lysis is repeated, then PBS (50 μL) is added to each well. […]

In order of falling IC50:
1. CS(=O)(=O)Cn1nc(C2CC2)c(Oc2ccc(C#N)c(F)c2)c1C1CC1 [Example 5, 4-(3,5-dicyclopropyl-1-methanesulfonylmethyl-1H-pyrazol-4-yloxy)-2-fluoro-benzonitrile]  0.044 µM
2. Cc1cc(Oc2c(C3CC3)nn(CS(C)(=O)=O)c2C)ccc1C#N [Example 17, 4-(3-cyclopropyl-1-methanesulfonylmethyl-5-methyl-1H-pyrazol-4-yloxy)-2-methyl-benzonitrile]  0.022 µM
3. Cc1cc(Oc2c(C)nn(CS(C)(=O)=O)c2C2CC2)cc(C)c1C#N [Example 20, 4-(5-cyclopropyl-1-methanesulfonylmethyl-3-methyl-1H-pyrazol-4-yloxy)-2,6-dimethyl-benzonitrile]  0.015 µM
4. Cc1cc(Oc2c(C3CC3)nn(CS(C)(=O)=O)c2C2CC2)cc(C)c1C#N [Example 3, 4-(3,5-dicyclopropyl-1-methanesulfonylmethyl-1H-pyrazol-4-yloxy)-2,6-dimethyl-benzonitrile]  0.008 µM
5. Cc1cc(Oc2c(C3CC3)nn(CS(C)(=O)=O)c2C)cc(C)c1C#N [Example 19, 4-(3-cyclopropyl-1-methanesulfonylmethyl-5-methyl-1H-pyrazol-4-yloxy)-2,6-dimethyl-benzonitrile]  0.007 µM
6. CCc1nn(CS(C)(=O)=O)c(CC)c1Oc1cc(C)c(C#N)c(C)c1 [Example 23, 4-(3,5-diethyl-1-methanesulfonylmethyl-1H-pyrazol-4-yloxy)-2,6-dimethyl-benzonitrile]  0.006 µM

System: not given
Assay: not given
Settings: not given

First: CS(=O)(=O)Cn1nc(C2CC2)c(Oc2ccc(C#N)cc2)c1C1CC1 [Example 1, 4-(3,5-Dicyclopropyl-1-methanesulfonylmethyl-1H-pyrazol-4-yloxy)-benzonitrile]
Second: Cc1cc(Oc2c(C3CC3)nn(CS(C)(=O)=O)c2C2CC2)ccc1C#N [Example 2, 4-(3,5-dicyclopropyl-1-methanesulfonylmethyl-1H-pyrazol-4-yloxy)-2-methyl-benzonitrile]
The melting point of the first is higher: 141.5 to 142.5 °C for the first, 140.7 to 141.3 °C for the second.
